The target of assay [1] is T1, Recombinant STAT6 protein (STAT6 (W123-T658)) (Homo sapiens, UniProt P42226).
T1 construct: Recombinant STAT6 protein (STAT6 (W123-T658))
T1 sequence (P42226 123-658): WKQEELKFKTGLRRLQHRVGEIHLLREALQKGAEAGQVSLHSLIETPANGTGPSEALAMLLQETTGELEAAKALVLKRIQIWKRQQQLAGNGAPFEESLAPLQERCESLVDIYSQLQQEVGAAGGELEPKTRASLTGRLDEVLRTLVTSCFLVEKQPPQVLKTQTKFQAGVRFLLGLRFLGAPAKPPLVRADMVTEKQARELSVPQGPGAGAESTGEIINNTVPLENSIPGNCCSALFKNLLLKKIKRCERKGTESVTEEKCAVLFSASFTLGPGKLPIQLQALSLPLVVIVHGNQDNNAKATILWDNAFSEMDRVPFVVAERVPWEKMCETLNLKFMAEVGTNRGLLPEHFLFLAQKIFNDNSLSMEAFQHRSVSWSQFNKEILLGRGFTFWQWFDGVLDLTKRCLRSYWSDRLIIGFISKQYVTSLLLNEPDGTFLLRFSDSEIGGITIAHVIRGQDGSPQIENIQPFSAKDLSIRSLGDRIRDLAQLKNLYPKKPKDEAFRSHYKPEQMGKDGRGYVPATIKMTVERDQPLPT
Description: STAT6 Fluorescence Polarization (FP) Assay. The format is binding. Particulars: probe 5-FAM-Ap[…]-NH2 2 nM, 45-minute incubation. The procedure, abridged:
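Displacement of a fluorescent phosphotyrosine peptide (2 nM) from 250 nM STAT6 (W123-T658) is measured by polarization after a 45-minute room-temperature incubation. Compounds are titrated serially at 1% DMSO, and IC50 values derive from regression of mP on log concentration.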
(In fluorescence polarisation assays a small probe gives low polarisation when free and higher when bound to something large.)

The target of assay [2] is T2, Recombinant STAT3 protein (STAT3 (G127-I722)) (Homo sapiens, UniProt P40763).
T2 construct: Recombinant STAT3 protein (STAT3 (G127-I722))
T2 sequence (P40763 127-722): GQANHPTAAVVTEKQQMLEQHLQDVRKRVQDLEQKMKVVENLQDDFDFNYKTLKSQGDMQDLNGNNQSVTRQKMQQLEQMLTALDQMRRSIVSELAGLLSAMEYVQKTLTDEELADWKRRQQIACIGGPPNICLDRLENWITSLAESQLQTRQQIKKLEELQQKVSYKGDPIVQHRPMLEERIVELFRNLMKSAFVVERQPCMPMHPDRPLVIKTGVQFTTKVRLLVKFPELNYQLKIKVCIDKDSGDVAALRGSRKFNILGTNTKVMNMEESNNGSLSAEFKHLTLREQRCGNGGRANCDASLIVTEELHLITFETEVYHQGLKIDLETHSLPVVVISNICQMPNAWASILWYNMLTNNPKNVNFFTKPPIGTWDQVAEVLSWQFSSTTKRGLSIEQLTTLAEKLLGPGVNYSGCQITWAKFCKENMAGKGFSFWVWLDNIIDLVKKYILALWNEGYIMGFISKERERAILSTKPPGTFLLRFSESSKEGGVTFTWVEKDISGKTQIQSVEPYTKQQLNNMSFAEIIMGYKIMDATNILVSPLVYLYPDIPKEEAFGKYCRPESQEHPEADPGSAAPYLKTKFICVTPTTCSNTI
Description: STAT3 Fluorescence Polarization (FP) Assay. Format: binding. Particulars: probe 5-FAM-GpYLPQTV-NH2 2 nM, 45-minute incubation. The procedure, abridged:
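Read-out is fluorescence polarization (mP) after 45 min at room temperature, with IC50 fitted by nonlinear regression against log compound concentration. Mixture: 25 nM STAT3 (G127-I722), 2 nM 5-FAM-GpYLPQTV-NH2 phosphopeptide, 10 mM HEPES pH 7.4 buffer, 1% DMSO.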

[3] abbreviates: STAT6 250 nM, read-out: STAT6 (FP assay IC50).
Setting [4] is: STAT3 25 nM, read-out: STAT3 (FP assay IC50).
Where [5] appears, read: STAT6 (W123-T658) 250 nM, read-out: STAT6 (FP assay IC50 class).
Where [6] appears, read: STAT3 (G127-I722) 25 nM, read-out: STAT3 (FP assay IC50 class).

Structures are written as SMILES. Like-named read-outs stand apart in the source and are kept apart here. Some results are limits rather than exact numbers.

In the case of `O=C(N[C@H]1CCC[C@H]2CCC[C@@H](C(=O)N3CC(n4ccnc4)C3)N2C1=O)c1cc2cc(C(F)(F)P(=O)(O)O)ccc2s1` [Compound 60, ((2-(((4S,7S,10aS)-4-(3-(1H-imidazol-1-yl)azetidine-1-carbonyl)-6-oxodecahydropyrido [1,2-a]azepin-7-yl)carbamoyl)benzo[b]thiophen-5-yl)difluoromethyl) phosphonic acid], the 50% inhibitory concentration (IC50) was 3 to 30 µM in assay [1] (setting [3]) and < 100 nM in assay [2] (setting [4]).
Take `CN(C)c1ccncc1C1CN(C(=O)[C@@H]2CC[C@@H]3CCC[C@H](NC(=O)c4cc5cc([C@H](F)P(=O)(O)O)ccc5s4)C(=O)N32)C1` (single isomer, unassigned) [Compound 634]: the IC50 was 0.3 to 3 µM in assay [1] (setting [5]) and < 100 nM in assay [2] (setting [6]).
On to `C[C@H]1C[C@H]2CC[C@@H](C(=O)N3CC[C@@H](c4ccccc4)C3)N2C(=O)[C@@H](NC(=O)c2cc3cc(C(F)(F)P(=O)(O)O)ccc3s2)CC1O` (stereo in doubt) [Compound 101, (difluoro(2-(((3S,6S,8S,9S, 10aR)-8-hydroxy-9-methyl-5-oxo-3-((S)-3-phenylpyrrolidine-1-carbonyl)decahydropyrrolo [1,2-a]azocin-6-yl)carbamoyl)benzo[b]thiophen-5-yl)methyl) phosphonic acid], for which the IC50 in assay [1] (setting [3]) is 0.3 to 3 µM; in assay [2] (setting [4]), 100 to 1000 nM.
With `O=C(N[C@H]1CCCC[C@H]2CCC[C@@H](C(=O)N3CC(n4ccnc4)C3)N2C1=O)c1cc2cc(C(F)(F)P(=O)(O)O)ccc2s1` [Compound 62, ((2-(((4S,7S,11aS)-4-(3-(1H-imidazol-1-yl)azetidine-1-carbonyl)-6-oxodecahydro-2H-pyrido[1,2-a]azocin-7-yl)carbamoyl)benzo[b]thiophen-5-yl)difluoromethyl) phosphonic acid], the IC50 in assay [1] (setting [3]) is > 30 µM; in assay [2] (setting [4]) it was > 10000 nM.
Regarding `CN1CCN(c2ccncc2C2CN(C(=O)[C@@H]3CC[C@@H]4CCC[C@H](NC(=O)c5cc6cc([C@@H](F)P(=O)(O)O)ccc6s5)C(=O)N43)C2)C1=O` [Compound 851, ((S)-fluoro(2-(((3S,6S,9aS)-3-(3-(4-(3-methyl-2-oxoimidazolidin-1-yl)pyridin-3-yl)azetidine-1-carbonyl)-5-oxooctahydro-1H-pyrrolo[1,2-a]azepin-6-yl)carbamoyl)benzo [b]thiophen-5-yl)methyl) phosphonic acid], the concentration for half-maximal inhibition (IC50) was 3 to 30 µM in assay [1] (setting [5]) and 100 to 1000 nM in assay [2] (setting [6]).
For `O=C(N[C@H]1CCC[C@H]2CC[C@@H](C(=O)NCc3c[nH]c4ncccc34)N2C1=O)c1cc2cc(C(F)(F)P(=O)(O)O)ccc2s1` [Compound 31, ((2-(((3S,6S,9aS)-3-(((1H-pyrrolo[2,3-b]pyridin-3-yl)methyl)carbamoyl)-5-oxooctahydro-1H-pyrrolo[1,2-a]azepin-6-yl)carbamoyl)benzo [b]thiophen-5-yl)difluoromethyl) phosphonic acid], the values for the IC50 in assay [1] (setting [3]) and in assay [2] (setting [4]) were 0.3 to 3 µM and 100 to 1000 nM, respectively.
For `C[C@@H]1CC[C@H](NC(=O)c2ccc3ccc(CP(=O)(O)O)cc3c2)C(=O)N2[C@H](CC[C@H]2C(=O)N2CC(c3ccccc3)CC23CC3)C1` (stereo partly drawn) [Compound 887, ((7-(((3S,6S,9R,10aR)-9-methyl-5-oxo-3-(6-phenyl-4-azaspiro[2.4]heptane-4-carbonyl)decahydropyrrolo[1,2-a]azocin-6-yl)carbamoyl)naphthalen-2-yl)methyl) phosphonic acid], the IC50 is 0.3 to 3 µM in assay [1] (setting [5]) and 1000 to 10000 nM in assay [2] (setting [6]).
In the same order, the values of `O=C(N[C@H]1CCCC[C@H]2CC[C@@H](C(=O)N3C(=O)N(c4cccnc4)C(=O)C34CC4)N2C1=O)c1ccc2ccc(CP(=O)(O)O)cc2c1` [Compound 893, ((7-(((3S,6S,10aS)-3-(5,7-dioxo-6-(pyridin-3-yl)-4,6-diazaspiro[2.4]heptane-4-carbonyl)-5-oxodecahydropyrrolo[1,2-a]azocin-6-yl)carbamoyl)naphthalen-2-yl)methyl) phosphonic acid] are 0.3 to 3 µM and 1000 to 10000 nM.
For `N#Cc1cccc(C2CN(C(=O)[C@@H]3CC[C@@H]4CCC[C@H](NC(=O)c5cc6cc(C(F)(F)P(=O)(O)O)ccc6s5)C(=O)N43)C2)c1` [Compound 51, ((2-(((3S,6S,9aS)-3-(3-(3-cyanophenyl)azetidine-1-carbonyl)-5-oxooctahydro-1H-pyrrolo[1,2-a]azepin-6-yl)carbamoyl)benzo[b]thiophen-5-yl)difluoromethyl) phosphonic acid], the IC50 in assay [1] (setting [3]) was 0.3 to 3 µM; in assay [2] (setting [4]) it was < 100 nM.
In the same order, the values of `N#C[C@@H]1CN(C(=O)[C@@H]2C[C@@H](O)[C@@H]3CCCCC[C@H](NC(=O)c4ccc5ccc(C(F)(F)P(=O)(O)O)cc5c4)C(=O)N23)C[C@H]1c1cc[nH]c(=O)c1` (single isomer, unassigned) [Compound 106, ((7-(((1R,3S,6S, 11aS)-3-((3S,4R or 3R,4S)-3-cyano-4-(2-oxo-1,2-dihydropyridin-4-yl)pyrrolidine-1-carbonyl)-1-hydroxy-5-oxodecahydro-1H-pyrrolo[1,2-a]azonin-6-yl)carbamoyl)naphthalen-2-yl)difluoromethyl) phosphonic acid] are ≤ 0.3 µM and 1000 to 10000 nM.
`N#C[C@@H]1CN(C(=O)[C@@H]2C[C@@H](O)[C@@H]3CCCCC[C@H](NC(=O)c4cc5cc(C(F)P(=O)(O)O)ccc5s4)C(=O)N23)C[C@H]1c1ccccc1` (relative stereo) [Compound 553, ((2-(((1R,3S,6S,11aS)-3-((rel-trans)-3-cyano-4-phenylpyrrolidine-1-carbonyl)-1-hydroxy-5-oxodecahydro-1H-pyrrolo[1,2-a]azonin-6-yl)carbamoyl)benzo[b]thiophen-5-yl)fluoromethyl)phosphonic acid]: the IC50 in assay [1] (setting [5]) fell in the range of 0.3 to 3 µM; in assay [2] (setting [6]), 1000 to 10000 nM.
Take `O=C(N[C@H]1CCCC[C@H]2CC[C@@H](C(=O)N3CC(F)(c4ccccc4F)C3)N2C1=O)c1cc2cc(C(F)(F)P(=O)(O)O)ccc2s1` [Compound 54, (difluoro(2-(((3S,6S,10aS)-3-(3-fluoro-3-(2-fluorophenyl)azetidine-1-carbonyl)-5-oxodecahydropyrrolo [1,2-a]azocin-6-yl)carbamoyl)benzo[b]thiophen-5-yl)methyl) phosphonic acid]: the results for the IC50 in assay [1] (setting [3]) and in assay [2] (setting [4]) were 0.3 to 3 µM and < 100 nM, respectively.
With `COc1c(C2CN(C(=O)[C@@H]3CC[C@@H]4CCC[C@H](NC(=O)c5cc6cc(C(F)P(=O)(O)O)ccc6s5)C(=O)N43)C2)ccnc1C#N` (stereo partly drawn) [Compound 932, ((2-(((3S,6S,9aS)-3-(3-(2-cyano-3-methoxypyridin-4-yl)azetidine-1-carbonyl)-5-oxooctahydro-1H-pyrrolo[1,2-a]azepin-6-yl)carbamoyl)benzo [b]thiophen-5-yl)fluoromethyl) phosphonic acid], the half-maximal inhibitory concentration (IC50) was 3 to 30 µM in assay [1] (setting [5]) and < 100 nM in assay [2] (setting [6]).
In the same order, the values of `O=C(N[C@H]1CCCC[C@H]2CC[C@@H](C(=O)N3CC(c4ccccc4)CC34CC4)N2C1=O)c1ccc2ccc(C(F)(F)P(=O)(O)O)cc2c1` (stereo partly drawn) [Compound 880, (difluoro(7-(((3S,6S,10aS)-5-oxo-3-(6-phenyl-4-azaspiro[2.4]heptane-4-carbonyl)decahydropyrrolo[1,2-a]azocin-6-yl)carbamoyl)naphthalen-2-yl)methyl) phosphonic acid] are ≤ 0.3 µM and 1000 to 10000 nM.
For `COC1(CS(C)(=N)=O)CN(C(=O)[C@@H]2CC[C@@H]3CCC[C@H](NC(=O)c4cc5cc(C(F)(F)P(=O)(O)O)ccc5s4)C(=O)N32)C1` (stereo partly drawn) [Compound 822, (difluoro(2-(((3S,6S,9aS)-3-(3-methoxy-3-((S-methylsulfonimidoy 1)methyl)azetidine-1-carbonyl)-5-oxooctahydro-1H-pyrrolo[1,2-a]azepin-6-yl)carbamoyl)benzo [b]thiophen-5-yl)methyl) phosphonic acid] the same measures were 3 to 30 µM and 100 to 1000 nM.
In the same order, the values of `N#Cc1cc(C2CN(C(=O)[C@@H]3CC[C@@H]4CCC[C@H](NC(=O)c5cc6cc(C(F)P(=O)(O)O)ccc6s5)C(=O)N43)C2)ccn1` (stereo partly drawn) [Compound 918, ((2-(((3S,6S,9aS)-3-(3-(2-cyanopyridin-4-yl)azetidine-1-carbonyl)-5-oxooctahydro-1H-pyrrolo[1,2-a]azepin-6-yl)carbamoyl)benzo [b]thiophen-5-yl)fluoromethyl) phosphonic acid] are 3 to 30 µM and < 100 nM.

By IC50 is commonly meant the concentration that gives 50% inhibition.

For the origin of these results see patent US20250215029A1 (Recludix Pharma, Inc., priority 2022, published 2025).
